Measured values: patent publication US20240092756A1, “METHODS AND COMPOSITION FOR KRAS MODIFICATIONS” (2692372 ONTARIO, INC., priority 2020, published 2024)

How the values were obtained:
[1] = molecular target: KRAS G12C Lite (SEQ ID NO:3) (Homo sapiens, UniProt P01116, C118S/C51S/C80S/G12C/S136P/S39C); assay: Intact mass analysis (LC-MS) of covalent modification, KRAS G12C Lite; type: binding; design: key to KRAS Lite Modification: a: KRAS Lite modified; conditions: intact mass spectrometry; covalent modification of KRAS G12C Lite
In short: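 Protein (2 μM) reacted with compound (100 μM) for 24 h at 25° C in 20 mM HEPES pH 8, 150 mM NaCl, 2% DMSO, 2% glycerol, then analysed by intact-mass LC-MS (C4 column, positive-ion TOF). Up to 8 cysteine adducts allowed on deconvolution; adducts <2% of base peak ignored. % modification = adduct intensity over total protein plus adduct intensities.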

KRAS G12C Lite = KRAS G12C Lite (Homo sapiens, UniProt P01116, C118S/C51S/C80S/G12C/S136P/S39C); assay: Differential scanning fluorimetry, KRAS G12C Lite; type: binding; design: key: Y: protein destabilized; N: protein not destabilized; conditions: 37° C. 5 hours incubation
Method: (§1) KRas proteins at 0.05 mg/ml in buffer Hepes, 147 mM NaCl, 2% glycerol, 5 mM MgCl2, 1 mM EDTA, 10 μM GDP, pH 8.0 were incubated in the presence desired concentration of compounds (5% DMSO final concentration) at 37° C. for 5 hours. After incubation, Sypro Oange to a final concentration of 5× was added to each sample. 20 μl aliquots of samples were transferred PCR tubes, sealed with caps, and run in a BioRad CFX96 RTPCR thermocycler. In the instrument, the samples were heated at a rate of 1° C./min from 25 to 90 degrees. Fluorescence readings were taken every 1 degree. The data generated was exported and analyzed using GraphPad-Prism software. The denaturation curves were fit using a Boltzmann sigmoidal equation to calculate melting temperatures (Tm).

KRAS G12C [2] = molecular target: T1, KRAS G12C (Homo sapiens, UniProt P01116, G12C); assay: SOS1-catalyzed KRAS coupled nucleotide exchange assay (Alpha technology); type: biochemical; design: His; key: A: KRAS G12C bound and modulated; conditions: inhibition of SOS1 mediated KRAS nucleotide exchange
In short: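 Alpha readout of c-RAF RBD binding to GTP-bound KRAS, normalized to DMSO. Method I: 20 nM GDP-KRAS G12C/C118A with compound 5 min, then 1.25 mM GTP + 500 nM SOS-1 30 min, pH 7.4 HEPES/MgCl2 buffer, 50 nM RBD. Method II: 50 nM GDP-KRAS G12C with compound 2 h, 1 mM GTP + 500 nM SOS-1 30 min, 2.5 nM GST-RBD; RT throughout.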

KRAS G12C [3] = molecular target: T1, KRAS G12C; assay: Differential scanning fluorimetry, KRAS G12C; type: binding; design: purchased; key: Y: protein destabilized; N: protein not destabilized; conditions: 37° C. 5 hours incubation
Method: as §1

KRAS Lite Modification [1] | KRAS G12C Lite DSF ΔTm (KRAS G12C Lite) | KRAS-SOS1 Nucleotide Exchange (KRAS G12C [2]) | KRAS G12C DSF ΔTm (KRAS G12C [3]) | SMILES
a | Y | A | Y | Cc1ccnc(C(C)C)c1-n1c(=O)nc(NC2CN(S(=O)(=O)c3c(F)c(F)c(F)c(F)c3C(F)(F)F)C2)c2cc(F)c(-c3c(O)cccc3F)nc21 [Compound 15A, 6-fluoro-7-(2-fluoro-6-hydroxyphenyl)-1-(2-isopropyl-4-methylpyridin-3-yl)-4-((1-((2,3,4,5-tetrafluoro-6-(trifluoromethyl)phenyl)sulfonyl)azetidin-3-yl)amino)pyrido[2,3-d]pyrimidin-2(1H)-one]
a | Y | A | Y | Cc1ccnc(C(C)C)c1-n1c(=O)nc(NC2CN(S(=O)(=O)c3c(F)c(F)c(F)c(F)c3C(F)(F)F)C2)c2cc(F)c(Cl)nc21 [Compound 14A, 7-chloro-6-fluoro-1-(2-isopropyl-4-methylpyridin-3-yl)-4-((1-((2,3,4,5-tetrafluoro-6-(trifluoromethyl)phenyl)sulfonyl)azetidin-3-yl)amino)pyrido[2,3-d]pyrimidin-2(1H)-one]
